Assay results: a melting point compilation (Tetko et al.; mined from patent text by program, amines drawn as free bases though some values may be those of a salt)

| melting point | Compound |
| --- | --- |
| 146 °C | CC[C@@H](O)CC(=O)N[C@H]1CC[C@H](CCN2CCN(c3nccc4c3OCC4)CC2)CC1 |
| 112 °C | O=S(=O)(c1cccc(-c2cccc(-c3nc(-c4ccc(C(F)(F)F)cc4)cc(C(F)(F)F)n3)c2)c1)N(CCO)CCO |
| 134 to 136 °C | CCn1c(=O)n(OCc2ccccc2)c(=O)c2cc(F)c(N3CCN(C)CC3)cc21 |
| 147 to 150 °C | O=C(O)COc1cc(F)ccc1C(=S)NCc1cccc([N+](=O)[O-])c1 |
| 85 to 87 °C | CS(=O)(=O)Nc1cc(C(O)CNCCCCCCOCCCc2ccc(Cl)s2)ccc1O (stereo not drawn) |
| 180 to 184 °C | O=C(CCCCl)Nc1cccc(Cc2n[nH]c(=O)c3ccccc23)c1 |
| 120 to 123 °C | Cc1cc(Oc2c(Cl)cc(C(F)(F)F)cc2[N+](=O)[O-])n[nH]1 |
| 145 to 146 °C | CCCCCCCCN(CCCCCCCC)C(=O)c1cc(C(C)(C)C)c(OC(=O)c2cc(C(C)(C)C)c(O)c(C(C)(C)C)c2)c(C(C)(C)C)c1 |
| 182 °C | CC1(C)CCC(C)(C)c2cc(CCCn3cccn3)c(/C=C/c3ccc(C(=O)O)cc3)cc21 |
| 190 to 192 °C | COc1nc2cccnc2n1-c1ccc(-c2nc(-c3nccs3)cn2-c2ccc(C)nc2)cc1 |
| 111 to 112 °C | O=C1C=Cc2ccccc2C1(Cc1ccncc1)Cc1ccncc1 |
| 188 °C | CC(C)(C)OC(=O)CCNC1(c2ccccc2Cl)C(=O)Nc2ccc(Cl)cc21 (stereo not drawn) |
| 70 °C | CC(OCc1cc2cc(C(F)(F)F)ccc2n1S(=O)(=O)c1ccc2c(c1)OCCO2)C(=O)O (stereo not drawn) |
| 245 to 256 °C | COC1(N2CCCC2)C=CC=C(c2cnc3[nH]cc(C(=O)C(C)(C)C)c3n2)C1 (stereo not drawn) |
| 180 to 182 °C | COc1ccc2c(c1)c(Cc1cc(=O)n(-c3ccc(C(F)(F)F)cc3)[nH]1)c(C)n2C(=O)c1ccc(Cl)cc1 |
| 154 to 155 °C | CC1=C(CN2CC(C(=O)O)C2)CCc2cc(OCCCc3ccc(F)cc3)ccc21 |
| 141 to 142 °C | O=C(NC12CC3CC(CC(C3)C1)C2)c1ncon1 |
| 165 to 168 °C | COC(=O)N1CSC(=Cc2cc(C(C)(C)C)c(O)c(C(C)(C)C)c2)C1=O |
| 195 to 197 °C | COc1c(F)cc(-c2c(-c3ccc(S(C)(=O)=O)cc3)cnn(-c3ccc(F)c(Cl)c3)c2=O)cc1F |
| 189 to 191 °C | O=C1N(Cc2ccc3nsnc3c2)c2ccccc2C12COc1cc3c(cc12)OCCO3 (stereo not drawn) |
| 283 to 292 °C | CC(C)c1ccc2nc3ccc(C(=O)NCCc4cccnc4)cn3c(=O)c2c1 |
| 213 to 215 °C | O=C1CCCN1CC1CCN(c2nc(C(F)(F)F)ncc2O)CC1 |
| 219 to 220 °C | Cc1cc2c(nc1N)C(=O)N(C(C)C1CC1)C2=O (stereo not drawn) |

| melting point | Compound |
| --- | --- |
| 143 to 147 °C | O=C(C=Cc1ccccc1)c1cccc(O)c1 |
| 120 to 121 °C | COc1ccc2c(c1)OCC(C(=O)O)O2 (stereo not drawn) |
| 162 °C | O=C(O)Cc1cc(OCc2ccc3ccccc3n2)ccc1Nc1c(Cl)cccc1Cl |
| 154 to 155 °C | COCC(=O)Nc1c(C(=O)c2cccc(Cl)c2)[nH]c2cc(Cl)ccc12 |
| 38 to 38.5 °C | O=[N+]([O-])c1cnn(CC(O)CCl)n1 (stereo not drawn) |
| 160 °C | CCOc1ccc(C2CC(C(C)(C)C)=NN2c2ccc(C(=O)O)cc2)cc1 (stereo not drawn) |
| 131 to 134 °C | COc1ccc(C2Sc3cc(Cc4ccc(C)s4)ccc3N(CCN(C)C)C(=O)C2OC(C)=O)cc1 (stereo not drawn) |
| 99 to 101 °C | COC(=O)Cc1cc2c(cc1CC1NCCc3cc(OC)c(OC)cc31)OCO2 (stereo not drawn) |
| 233 to 235 °C | COc1cc2c(cc1Br)C1=C(c3cccs3)C3CSCCN(C(C)(C)C)C(=O)C3N1CC2 (stereo not drawn) |
| 245 to 248 °C | Cc1ccccc1NC(=O)Nc1ccc(-c2c(Cc3ccccc3)sc3ncnc(N)c23)cc1 |
| 118 to 119 °C | CCCCNc1cccnc1S(=O)(=O)NC(=O)Nc1nc(OC)cc(OC)n1 |
| 62 to 68 °C | COc1ccc(C(O)c2cc(O)ccc2OC)cc1 (stereo not drawn) |
| 120 to 121 °C | Cc1c(Br)cccc1NCc1c(C(=O)O)sc2ccccc12 |
| 145 °C | CS(=O)(=O)N1CC(=O)NC(=O)N1Cc1ccc(Cl)cc1 |
| 148 to 149 °C | CCCCOc1ccc2c(=O)n(Cc3ccccc3)[nH]c2c1 |
| 160 °C | CCOC(=O)Cc1nn(CC(=S)Nc2cc(C(F)(F)F)ccc2Br)c(=O)c2ccccc12 |
| 149 to 150 °C | O=C1c2cccc([N+](=O)[O-])c2C(=O)N1c1ccc(OC(F)(F)F)cc1 |
| 161 to 163 °C | COC(=O)C1CCCCc2c1ncn2C(c1ccccc1)(c1ccccc1)c1ccccc1 (stereo not drawn) |
| > 260 °C | CC(C)(C)c1cc(N2CCN(C(=O)c3ccc([N+](=O)[O-])cc3)C2=O)cc(C(C)(C)C)c1O |
| 220 °C | CC1(C)CCC(C)(C)c2cc(-c3cc(-c4ccc(C(N)=O)cc4)ccc3-c3ccccc3)ccc21 |
| 245 to 250 °C | O=C(Nc1ccc2oc(N3CCOCC3)cc(=O)c2c1)OCc1ccccc1 |
| 158 to 160 °C | O=C(O)Cc1ccc(-c2ccc(C(F)(F)F)cc2)cc1 |
| 134 to 138 °C | Cc1c(N)ccc([N+](=O)[O-])c1Cl |

| melting point | Compound |
| --- | --- |
| 313 °C | Cc1ccc2nc(C)c(C3=NNC(=O)CO3)n2c1 |
| 75 to 76 °C | C=Cc1ccc(OC(=O)c2ccccc2)cc1 |
| 200 to 203 °C | COc1ccc(-c2c3c(cc4ccc(O)cc24)-c2ccc(O)cc2CO3)cc1 |
| 86 to 87.5 °C | CCCCOc1cc(I)c(OCCCC)cc1I |
| 53 to 55 °C | Cc1cc(NC(=O)c2cnccc2C(F)(F)F)on1 |
| 195 to 197 °C | CC(C)(C)c1cc(SC2(Sc3cc(C(C)(C)C)c(O)c(C(C)(C)C)c3)CCCCC2)cc(C(C)(C)C)c1O |
| 308 °C | COc1ccc(C(=O)Nc2c(Cl)cncc2Cl)c2c1oc1ccc(Br)cc12 |
| 105 to 110 °C | Cn1c2c(c3c(Cl)cccc31)CCOC2(C)CC(=O)O (stereo not drawn) |
| 142 to 144 °C | CN(C)CCC(c1ccc(NC=O)cc1)c1ncc[nH]1 (stereo not drawn) |
| 230 to 233 °C | CCc1cc(NCc2ccc(-c3ccccc3C#N)cc2)n2nccc2n1 |
| 187 °C | Cc1nc(NCc2ccccc2)[nH]c(=O)c1CCO |
| 39 to 40 °C | COC(=O)[C@@H](C)Nc1ncccc1[N+](=O)[O-] |
| 143 to 145 °C | O=C1C=C(c2cccc(Cl)c2)CN(Cc2ccccc2)C1 |
| 299 to 302 °C | COc1ccc2[nH]c3c(c2c1)C[C@@]1(C)C(=O)N(CCBr)C(=O)N1[C@@H]3c1cccc(O)c1 (racemic) |
| 184 to 186 °C | COc1ccccc1Nc1nc2c(-c3ccc(C(F)(F)F)cc3)cccn2n1 |
| 188 °C | COc1cc(OC)c(-c2nc(N)sc2C)cc1Cl |
| 159 to 160 °C | COC(=O)Cc1cc(Br)c(S(=O)(=O)c2ccc(O)c(C(C)C)c2)c(Br)c1 |
| 113 to 115 °C | C=C1CCC2C3CC(=O)C4=CC(=O)CCC4(C)C3CCC12C (stereo not drawn) |
| 175 to 177 °C | Cc1ccc(NC(N)=S)c(O)c1 |
| 78 to 82 °C | CCCC(=O)C(=CNc1ccccc1COC(=O)c1ccccc1)C(=O)OCC |
| 172 to 173 °C | CC(C)(C)OC(=O)N1CCC2(CC1)CC(c1ccc(C(C)(C)C)cc1)=NO2 |
| 172 to 173 °C | Clc1cc(N2Cc3ccccc3C2)nc2ccccc12 |
| 54.8 °C | O=C(O)CCC(Cl)(Cl)Cl |

| melting point | Compound |
| --- | --- |
| 121 to 122 °C | Cc1cc2nc(Cl)c(Cl)nc2c([N+](=O)[O-])c1Cl |
| 155 to 158 °C | CCCc1nc(-n2cccc2)c(CO)[nH]1 |
| 201 to 202 °C | COc1ccc(Br)c2c1C1C(=O)N(C)C(=O)C1CC2 (stereo not drawn) |
| 146 to 148 °C | Cn1c(=O)c2c(ncn2Cc2noc(CCl)n2)n(C)c1=O |
| 94 to 95 °C | COC(=O)CCC(=O)c1ccc2c(c1)CC(CCCCNC(C)=O)C2 (stereo not drawn) |
| 145 to 148 °C | ON=C1Cc2ccccc2C1 |
| 193 to 194 °C | CC(C)CN1C(=O)c2cnc(-c3ccccc3)nc2N(C(=O)CN2CCCCC2)c2ccccc21 |
| 104 to 107 °C | COc1cc(C(=O)N(C(C)C)C2CCCCC2)ccc1Br |
| 232 to 234 °C | NC(=O)c1sc2nccc(N3CCCN(c4ccc(Cl)nn4)CC3)c2c1N |
| 151 °C | CS(=O)(=O)OC(c1ccc(C(OS(C)(=O)=O)(C(F)(F)F)C(F)(F)F)cc1)(C(F)(F)F)C(F)(F)F |
| 201 to 202 °C | O=C1COc2cccc3nc4c(c(c23)N1)CCCC4 |
| 128 to 129 °C | CC(=O)c1ccc2c(c1)C(=O)C1(CC1)S2 |
| 112 to 115 °C | CC(C)CCCC(C)CCOc1cc(CO)c(-c2ccccc2)cc1CO (stereo not drawn) |
| 138 to 139 °C | CCOC(=O)c1c(COC(C)=O)[nH]c(=O)n1C(C)=O |
| 107 to 110 °C | COc1cc(C=C(C=O)C(C=O)=Cc2ccc(OC(=O)c3ccccc3)c(OC)c2)ccc1OC(=O)c1ccccc1 |
| 155 to 159 °C | COC(=O)c1ccc(C2CNN=C2c2ccc(Cl)cc2)cc1 (stereo not drawn) |
| 44.5 to 46 °C | O=Cc1ccc(CO)cc1 |
| 148 to 149 °C | CCCCC(=O)c1c(-c2ccc3cc(O)ccc3c2)oc2ccccc12 |
| 187 to 189 °C | CC(=NNC(N)=O)c1ccc(NS(C)(=O)=O)c(Oc2ccc(F)cc2F)c1 |
| > 300 °C | CC1(C)C(=O)Nc2cc3[nH]c(-c4cnccn4)nc3cc21 |
| 155 to 158 °C | Cc1nc(N2CCc3ccccc3CC2)c(C#N)c(=O)n1C |
| 144 °C | CCOC(=O)C1=C(N)N=C(SC)C(C(=O)OCC)C1c1cccc([N+](=O)[O-])c1 (stereo not drawn) |

| Compound | melting point |
| --- | --- |
| CN1CC(C(=O)NC2NCCS2)CC2c3ccc(C(C)(C)C)c4[nH]cc(c34)CC21 (stereo not drawn) | 243 to 247 °C |
| CCOc1cccc(NC(=O)NC2N=C(c3ccccc3F)c3ccccc3N(CC(=O)N3CC4CCC(CC4)C3)C2=O)c1 (stereo not drawn) | 158 to 166 °C |
| COC(=O)C1N=C(c2ccccc2)c2cc(Cl)ccc2NC1=O (stereo not drawn) | 222 °C |
| CN1C(=O)C(NC(=O)NCc2ccccc2)N=C(c2ccccc2)c2ccccc21 (stereo not drawn) | 240 to 242 °C |
| CN1Cc2c(-c3noc(CCl)n3)ncn2-c2cccc(C(F)(F)F)c2C1=O | 180 to 184 °C |
| CCN1CCCC1Cc1cccc(NC(N)=O)c1 (stereo not drawn) | 114 to 116 °C |
| N#CC1CN1C(=O)NC(=O)c1ccco1 (stereo not drawn) | 148 to 150 °C |
